{
  "source": "paper PMC7450530",
  "about": "(Biochemistry, 2019)",
  "key": {"gyrase": {"system": "gyrase", "conditions": "cited from earlier work"}, "[1]": {"molecular_target": "T1, E. coli ParC^S80L topoisomerase IV (Escherichia coli, UniProt P0AFI2, S80L)", "format": "biochemical", "conditions": "read-out: IC50, inhibition of DNA decatenation"}, "E. coli GyrA^S83L gyrase [2]": {"molecular_target": "T2, E. coli GyrA^S83L gyrase (Escherichia coli, UniProt P0AES4, S83L)", "format": "biochemical"}, "[3]": {"molecular_target": "T3, E. coli wild-type topoisomerase IV (Escherichia coli, UniProt P0AFI2)", "format": "biochemical"}, "[4]": {"molecular_target": "T4, M. tuberculosis wild-type gyrase (Mycobacterium tuberculosis, UniProt P9WG47)", "format": "biochemical"}, "E. coli wild-type gyrase [5]": {"molecular_target": "T5, E. coli wild-type gyrase (Escherichia coli, UniProt P0AES4)", "format": "biochemical"}, "[6]": {"molecular_target": "T6, B. anthracis wild-type topoisomerase IV (Bacillus anthracis, UniProt A0A6H3AG07)", "format": "biochemical", "conditions": "read-out: IC50, inhibition of DNA decatenation"}, "E. coli": {"system": "E. coli", "conditions": "cited from earlier work"}, "[7]": {"molecular_target": "T1, E. coli ParC^S80L topoisomerase IV", "format": "biochemical"}, "[8]": {"molecular_target": "T3, E. coli wild-type topoisomerase IV", "format": "biochemical", "conditions": "read-out: IC50, inhibition of DNA decatenation"}, "[9]": {"molecular_target": "T4, M. tuberculosis wild-type gyrase", "format": "biochemical", "remark": "listed apart in the source"}, "[10]": {"system": "Mycobacterium tuberculosis", "conditions": "cited from earlier work"}, "[11]": {"molecular_target": "T7, B. anthracis wild-type gyrase (Bacillus anthracis, UniProt A0A6H3A7B1)", "format": "biochemical"}, "[12]": {"molecular_target": "T7, B. anthracis wild-type gyrase", "format": "biochemical", "conditions": "read-out: IC50, inhibition of DNA supercoiling"}, "E. coli wild-type gyrase [13]": {"molecular_target": "T5, E. coli wild-type gyrase", "format": "biochemical", "conditions": "read-out: IC50, inhibition of DNA supercoiling"}, "E. coli GyrA^S83L gyrase [14]": {"molecular_target": "T2, E. coli GyrA^S83L gyrase", "format": "biochemical", "remark": "listed apart in the source"}, "[15]": {"molecular_target": "T6, B. anthracis wild-type topoisomerase IV", "format": "biochemical"}, "[16]": {"conditions": "read-out: EC50, enhancement of single-stranded DNA cleavage"}},
  "note": "pEC50, pIC50: −log10 of the molar value.",
  "data": [
    {"smiles": "COc1ccc2ncc(C#N)c(CCN3CCC(NCc4cc5c(cn4)OCS5)CC3)c2c1", "note": "[GSK299423]", "values": [
      {"measurement": "type of gyrase-mediated DNA breaks induced", "setting": "gyrase", "value": "induces only gyrase-mediated single-stranded DNA breaks"}
    ]},
    {"smiles": "O=c1ccc2ncc(=O)n3c2n1C[C@H]3CN1CCC(NCc2cc3c(cn2)OCCC3)CC1", "note": "[gepotidacin]", "values": [
      {"measurement": "type of gyrase-mediated DNA breaks induced", "setting": "gyrase", "value": "induces only gyrase-mediated single-stranded DNA breaks"}
    ]},
    {"smiles": "CC[C@H](C)n1cc(C)c2c(C(=O)NCc3c(C)cc(C)[nH]c3=O)cc(-c3ccc(N4CCNCC4)nc3)cc21", "note": "[GSK126]", "values": [
      {"measurement": "pIC50", "setting": "[1]", "value": "~5.85"},
      {"measurement": "enhancement of DNA cleavage", "setting": "E. coli GyrA^S83L gyrase [2]", "value": "no ability to enhance DNA cleavage"},
      {"measurement": "ability to induce DNA cleavage in the presence of ATP", "setting": "[3]", "value": "marginal"},
      {"measurement": "enhancement of double-stranded DNA breaks", "setting": "[3]", "value": "no enhancement of double-stranded breaks was observed"},
      {"measurement": "pEC50", "setting": "[3]; [16]", "value": "> 6.30"},
      {"measurement": "maximal decrease of supercoiling activity", "setting": "[4]", "value": 60, "unit": "%"},
      {"measurement": "pIC50", "setting": "[4]; read-out: IC50, inhibition of DNA supercoiling", "value": "~4.12"},
      {"measurement": "induction of double-stranded DNA breaks", "setting": "E. coli wild-type gyrase [5]", "value": "no ability to induce double-stranded breaks"},
      {"measurement": "levels of single-stranded DNA cleavage in the presence of ATP vs absence", "setting": "E. coli wild-type gyrase [5]", "value": "considerably lower"},
      {"measurement": "pIC50", "setting": "[6]", "value": "~5.64"},
      {"measurement": "Minimal Inhibitory Concentration", "setting": "E. coli", "value": 0.26, "unit": "µM"},
      {"measurement": "induction of DNA cleavage", "setting": "[7]", "value": "ineffective at inducing DNA cleavage"},
      {"measurement": "pIC50", "setting": "[8]", "value": "~5.85"},
      {"measurement": "induction of double-stranded DNA breaks", "setting": "[9]", "value": "no ability to induce double-stranded breaks"},
      {"measurement": "activity against the bacterium in a screen", "setting": "[10]", "value": "moderate activity"},
      {"measurement": "induction of double-stranded DNA breaks", "setting": "[11]", "value": "no ability to induce double-stranded breaks"},
      {"measurement": "pIC50", "setting": "[12]", "value": "~6.40"},
      {"measurement": "pIC50", "setting": "E. coli wild-type gyrase [13]", "value": "~5.70"},
      {"measurement": "fold more potent in supercoiling inhibition than against wild-type enzyme", "setting": "E. coli GyrA^S83L gyrase [14]", "value": "5–10 fold"},
      {"measurement": "enhancement of double-stranded DNA breaks", "setting": "[15]", "value": "no enhancement of double-stranded breaks was observed"},
      {"measurement": "pEC50", "setting": "[15]; [16]", "value": "> 6.30"}
    ]}
  ]
}
